The structures appear in SMILES notation. Read-outs that look alike come from different tables or passages of the source.

For data set [1], the system named is MYC in LNCaP and VCaP cells. Nature of the data set: MYC expression by western blot, RT-PCR, RNAseq. Conditions: to the level of SPA monotherapy. In kind it is cell-based, human. From the text: FIG. 5A, FIG. 5B, FIG. 5C, FIG. 5D, and FIG. 5E show: FIG. 5A, MYC expression by IHC in a metastatic tumor biopsy from a patient before and after 3 months of BAT. FIG. 5B, Quantification of MYC protein expression from metastatic tumor biopsies from patients before and after 3 months of BAT color-coded by response (non-responder NR; responder R). […] Vinculin was used as a loading control. FIG. 5D, Principal component analysis of RNA and ATAC sequencing of LNCaP cells treated for 5 days with R1881 10 nM (SPA). […] Vinculin was used as a loading control;
For orientation: A western blot detects proteins with antibodies after separation by electrophoresis.

In data set [2] the test system is SKCaP-1R patient-derived xenograft tumors. Nature of the data set: Global metabolomics of SKCaP-1R tumors. It is filed as in vivo, castrated NSG mice. The note with it: 14 days of treatment.
For data set [3], the system named is patients with advanced CRPC, long-term castrates. The note with it: cited from earlier work.
In data set [4] the test system is patients with early CRPC (rising PSA and minimal bone disease). Conditions: cited from earlier work.
For data set [5], the system named is patients with CRPC. The note with it: cited from earlier work.
Data set [6] relates to chronically castrated patients with rising PSA and CRPC. Nature of the data set: Pilot study of BAT with oral etoposide, then second line therapy post-BAT. It is filed as in vivo, human. Conditions: post-BAT; for PSA decline upon re-challenge: agent previously progressed on. From the text: Based on the preclinical results and potential mechanisms for growth inhibition that include androgen-induced double strand breaks and stabilization of AR preventing relicensing, we have conducted a pilot study evaluating the efficacy and safety of pharmacologic doses of testosterone to produce high dose T levels in conjunction with oral etoposide in chronically castrated patients with rising PSA and CRPC (37). Patients who had been continuously castrate for more than one year with minimal metastatic disease burden (≤5 total bone metastases and ≤10 total sites of metastases) and/or rising PSA were eligible. To achieve rapid cycling between high dose and near castrate serum T (i.e., BAT) patients received intramuscular injection of 400 mg testosterone cypionate every 28 days. For the first 3 cycles of therapy patients received BAT plus oral etoposide 100 mg po/day days 1-14 of a 28-day cycle. After 3 cycles PSA response and objective response were assessed. Those patients with a PSA that was declining from peak levels and no objective evidence of disease progression or worsening pain were continued on therapy. Given the toxicity associated with etoposide and the lack of clinical response in an earlier trial (38), patients who responded after 3 cycles of testosterone plus etoposide were continued on testosterone alone based on protocol amendment.

The subject of data set [7] is patients with CRPC progressing on Enza (Cohort A) or Abi (Cohort B). In kind it is in vivo, human. Conditions: re-exposed to agent progressed on before BAT. From the text:
The RESTORE study (NCT02090114) was an NIH sponsored Phase II study designed to assess the safety and efficacy of BAT in patients (n=30 per cohort) with CRPC progressing on Enza (Cohort A) or Abi (Cohort B), FIG. 18A (34,39). The primary endpoint of the first part of the study was to assess PSA response to BAT. Secondary endpoints included objective response, safety, and quality of life. The second part of the study was to determine in BAT could re-sensitize patients to repeat exposure to second line therapy that patients were progressing on prior to receiving BAT. Thus, patients progressing on Enza were re-exposed to Enza after BAT and similarly for Abi. Both arms of this study met the primary endpoint. PSA50 response to BAT was 30% in patient's post-Enza and 18% post-Abi, FIG. 18B. […] Overall duration of response to BAT and duration of response to re-exposure was longer in the post-Enza vs. post-Abi cohort. The PSAso response to re-exposure to Enza was 71% vs. only 21% for patients re-exposed to Abi, FIG. 19B (7). A third cohort was later added (Cohort C) for patients progressing on ADT alone. Overall, 90 patients were treated on this study over a 4-year period (2014-2018).

The test system of data set [8] is VCaP cells. Nature of the data set: Colony formation (clonal survival). The note with it: Homo sapiens, VCaP; 0.5 nM. It is filed as cell-based, human. From the text:
(§1) FIG. 3A. […] Ns, not significant. FIG. 3B. […] Ns, not significant. FIG. 3C. […] P values by ANOVA;

Data set [9] has as its system LNCaP cells. Nature of the data set: Colony formation (clonal survival). The note with it: Homo sapiens, LNCaP; 0.5 nM. It is filed as cell-based, human.
Source text: as §1

Data set [10] deals with LNCaP cells. Nature of the data set: Putrescine abundance by HPLC in cells and media. The note with it: 10 nM. It is filed as cell-based, human. From the text: Vinculin was used as a loading control. FIG. 2F, Polyamine synthesis pathway.

Turning to `C[S+](CC[C@H](N)C(=O)O)C[C@H]1O[C@@H](n2cnc3c(N)ncnc32)[C@H](O)[C@@H]1O` (stereo partly shown) [SAM, S-adenosylmethionine], the “rescue of MYC in cells treated with SPA and DFMO” value in [1] is “sufficient to rescue MYC”.

As to `C[C@]12CC[C@H]3[C@@H](CCC4=CC(=O)CC[C@@]43C)[C@@H]1CC[C@@H]2O` [testosterone], in [2], the “abundance of polyamine precursors ornithine and SAM in tumors” value is on record as “decreased”; the “abundance of polyamines putrescine and spermine in tumors” value is “increased”. The “clinical improvement (pain, prostate size, phosphatases)” value in [3] (Brendler et al. 1949, parenteral) is recorded as “considerable improvement in several patients”. Besides, the “patients with subjective improvement” value in data set [3] (long-term castrate group, at least one month) was 4 of 5. The “patients with decline of acid phosphatase” value in data set [3] (longer course of testosterone) is 2/5.

With `C[C@]12CC[C@H]3[C@@H](CCC4=CC(=O)CC[C@@]43C)[C@@H]1CC[C@@H]2O` [transdermal T], in [4] (2.5 mg/day transdermal), the “median concentration of T” value was 305 ng/dL. For the same compound, the “median concentration of T” value in data set [4] (5.0 mg/day transdermal) was 308 ng/dL. Moreover, the “median concentration of T” value in data set [4] (7.5 mg/day transdermal) was 297 ng/dL. Further, the “patients with a decrease in PSA” value in [4] (15 patients) is on record as 20%. In addition, in data set [4] (in vivo), the “grade 3 or 4 toxicities” value was “no grade 3 or 4 toxicities were observed with the exception of one person”, the “largest decrease in PSA” value is on record as 43% and the “patients with symptomatic progression” value is given as “one”. In data set [5] (7.5 mg/day), the “grade 3 or 4 toxicities, pain flares” value was “no grade 3 or 4 toxicities and no pain flares”; the objective responses result was “No objective responses”. Also, in [5] (12 patients), the “patients with >50% PSA decline” value was “one” and the “patients with at least 20% PSA declines” value is recorded as “Four”.

As for `CC1(C)NC(=O)N(c2ccc([N+](=O)[O-])c(C(F)(F)F)c2)C1=O` [nilutamide], the “PSA decline upon re-challenge” value in [6] was 44.3%.

On to `C[C@]12CC[C@H](O)CC1=CC[C@@H]1[C@@H]2CC[C@]2(C)C(c3cccnc3)=CC[C@@H]12` [Abi], for which the “PSA50 response to re-exposure (re-challenge) post-BAT” value in data set [7] stood at 21%. For the same compound, the “patients with >50% PSA decline on second line therapy” value in [6] is reported as “Four of 4”.

For `C[C@]1(O)CC[C@H]2[C@@H]3CCC4=CC(=O)CCC4=C3C=C[C@@]21C` [R1881, 17α-methyl-19-nor-δ9,11-testosterone], the inhibition at 0.0005 µM in [8] and in data set [9] was roughly 15% throughout. Further, the “putrescine, intracellular and extracellular” value in data set [10] is “Marked intracellular and extracellular accumulation”.

For the compound `N=C(N)c1cccc2c1CC/C2=N\N=C(N)N` [SAM486], the “rescue of MYC in cells treated with SPA and DFMO” value in data set [1] is reported as “phenocopied”.

On to `CC(O)(CS(=O)(=O)c1ccc(F)cc1)C(=O)Nc1ccc(C#N)c(C(F)(F)F)c1` (stereo not shown) [bicalutamide], for which the “PSA decline upon re-challenge” value in data set [6] is on record as 30.9%.

As a reminder, the inhibition is the share of the control response that was lost under treatment. The low end stands for a weak effect, the high end for a strong effect.

These data come from patent US20260284076A1, “TESTOSTERONE AND DIFLUOROMETHYLORNITHINE COMBINATION THERAPY FOR PROSTATE CANCER” (The Johns Hopkins University, priority 2023, published 2026).
